Our source for the IC50 values is patent US8148391B2 (Cephalon, Inc., priority 2006, dated 2012).

Experiment [1] has as its target T1, c-Met (cytoplasmic domain) (Homo sapiens, UniProt P08581).
T1 construct: 10 ng/mL c-Met (cytoplasmic domain, Invitrogen Corporation #PV3143); purchased Invitrogen Corporation PV3143
In words: c-Met Kinase Assay (same methods as for ALK, with modifications). The experiment is classed as biochemical. The conditions noted are these: c-Met kinase inhibition, 1 μM ATP; read-out: cMet Activity. In short, it runs like this: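 Plates were coated with phospholipase C-γ substrate (10 μg/mL) in TBS, and the reaction was started with 10 ng/mL c-Met cytoplasmic domain and run 15 min at 37 °C. Phosphoproduct was detected with Eu-N1-labelled PT66 antibody. IC50 came from a variable-slope sigmoidal fit of percent inhibition vs log concentration.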

Experiment [2] concerns the target T2, baculovirus-expressed ALK (Homo sapiens, UniProt Q9UM73).
T2 construct: host or cells: baculovirus expression system
In words: ALK Kinase Assay (ELISA-type, time-resolved fluorescence). The conditions noted are these: ALK kinase inhibition, 1 μM ATP; read-out: ALK Activity. The experiment is classed as biochemical. Put shortly: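 Plates coated with phospholipase C-γ substrate (10 μg/mL in TBS); reaction started with 30 ng/ml ALK and run 15 min at 37° C. Phosphorylated substrate detected with Eu-N1-labeled PT66 antibody. IC50 from sigmoidal variable-slope fit of percent inhibition vs log concentration.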

T1 sequence (P08581 956-1390 limits assumed): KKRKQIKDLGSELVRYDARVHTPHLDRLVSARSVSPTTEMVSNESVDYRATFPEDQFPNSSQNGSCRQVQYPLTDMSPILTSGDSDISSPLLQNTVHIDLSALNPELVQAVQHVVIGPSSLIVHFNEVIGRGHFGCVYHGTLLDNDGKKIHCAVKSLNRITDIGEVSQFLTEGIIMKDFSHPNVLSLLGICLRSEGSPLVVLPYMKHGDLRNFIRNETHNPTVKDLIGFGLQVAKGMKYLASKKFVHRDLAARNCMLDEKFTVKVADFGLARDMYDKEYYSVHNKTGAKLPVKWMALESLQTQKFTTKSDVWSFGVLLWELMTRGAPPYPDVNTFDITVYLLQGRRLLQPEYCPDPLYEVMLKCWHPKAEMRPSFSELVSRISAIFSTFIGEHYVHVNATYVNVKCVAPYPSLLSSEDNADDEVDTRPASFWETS
T2 sequence (Q9UM73 19-1620): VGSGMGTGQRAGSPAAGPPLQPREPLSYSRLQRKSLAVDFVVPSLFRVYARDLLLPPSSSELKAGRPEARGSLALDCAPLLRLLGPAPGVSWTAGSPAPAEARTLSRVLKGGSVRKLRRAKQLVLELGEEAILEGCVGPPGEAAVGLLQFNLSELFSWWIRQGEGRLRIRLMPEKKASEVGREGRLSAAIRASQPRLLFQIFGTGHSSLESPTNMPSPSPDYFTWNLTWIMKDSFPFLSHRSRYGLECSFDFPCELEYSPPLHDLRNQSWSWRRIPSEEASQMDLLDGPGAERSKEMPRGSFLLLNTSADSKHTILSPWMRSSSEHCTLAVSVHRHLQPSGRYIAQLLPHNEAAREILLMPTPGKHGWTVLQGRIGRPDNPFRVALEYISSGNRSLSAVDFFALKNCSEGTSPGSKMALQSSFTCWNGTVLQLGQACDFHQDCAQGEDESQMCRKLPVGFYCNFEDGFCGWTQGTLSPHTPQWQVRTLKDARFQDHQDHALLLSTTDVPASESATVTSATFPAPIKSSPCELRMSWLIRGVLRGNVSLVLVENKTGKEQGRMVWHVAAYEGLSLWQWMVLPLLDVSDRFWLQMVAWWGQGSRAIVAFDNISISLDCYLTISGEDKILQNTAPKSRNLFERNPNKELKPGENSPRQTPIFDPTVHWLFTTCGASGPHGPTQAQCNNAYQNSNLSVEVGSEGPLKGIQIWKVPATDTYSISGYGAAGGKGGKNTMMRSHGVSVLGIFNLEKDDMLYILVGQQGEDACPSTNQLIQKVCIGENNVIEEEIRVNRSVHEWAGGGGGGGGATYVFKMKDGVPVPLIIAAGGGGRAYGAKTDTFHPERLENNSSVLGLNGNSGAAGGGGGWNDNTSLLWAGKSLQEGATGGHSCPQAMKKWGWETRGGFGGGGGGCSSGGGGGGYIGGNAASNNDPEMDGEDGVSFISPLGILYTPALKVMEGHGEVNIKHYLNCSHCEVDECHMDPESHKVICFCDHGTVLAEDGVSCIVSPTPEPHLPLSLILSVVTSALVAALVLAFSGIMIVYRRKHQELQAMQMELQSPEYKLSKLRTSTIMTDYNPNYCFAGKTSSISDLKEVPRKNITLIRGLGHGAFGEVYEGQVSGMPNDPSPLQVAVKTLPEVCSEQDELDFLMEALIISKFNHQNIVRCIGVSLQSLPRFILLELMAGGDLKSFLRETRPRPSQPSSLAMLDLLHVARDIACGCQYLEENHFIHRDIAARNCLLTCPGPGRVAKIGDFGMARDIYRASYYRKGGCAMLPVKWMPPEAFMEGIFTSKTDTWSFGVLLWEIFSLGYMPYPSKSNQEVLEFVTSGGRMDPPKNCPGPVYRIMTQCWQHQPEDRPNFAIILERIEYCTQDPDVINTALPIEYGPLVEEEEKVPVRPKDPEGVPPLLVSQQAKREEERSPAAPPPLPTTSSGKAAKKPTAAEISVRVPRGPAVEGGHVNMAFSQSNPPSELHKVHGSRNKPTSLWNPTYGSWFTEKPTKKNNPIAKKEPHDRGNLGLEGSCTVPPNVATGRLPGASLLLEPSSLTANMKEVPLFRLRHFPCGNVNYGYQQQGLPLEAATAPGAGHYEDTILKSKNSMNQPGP

On to `COCCN1CCCC(C)(C)c2ccc(Nc3ncc(Cl)c(N[C@H]4[C@@H](C(N)=O)[C@@H]5C=C[C@H]4C5)n3)cc21` [Example 1600, (1S,2S,3R,4R)-3-{5-Chloro-2-[1-(2-methoxy-ethyl)-5,5-dimethyl-2,3,4,5-tetrahydro-1H-benzo[b]azepin-8-ylamino]-pyrimidin-4-ylamino}-bicyclo[2.2.1]hept-5-ene-2-carboxylic acid amide], for which the IC50 was 100 to 1000 nM in experiment [1] and below 100 nM in experiment [2].
The like results for `COCCN1CCCC(C)(C)c2ccc(Nc3ncc(Cl)c(Nc4ccc(N5CCOCC5)cc4OC)n3)cc21` [Example 1601, 5-Chloro-N*2*-[1-(2-methoxy-ethyl)-5,5-dimethyl-2,3,4,5-tetrahydro-1H-benzo[b]azepin-8-yl]-N*4*-(2-methoxy-4-morpholin-4-yl-phenyl)-pyrimidine-2,4-diamine] were, in that order, above 10000 nM and 100 to 1000 nM.
The corresponding values for `C#CCNC(=O)c1cccc(F)c1Nc1nc(Nc2ccc3c(c2)N(C(C)=O)CCCC3(C)C)ncc1Cl` [Example 1602, 2-[2-(1-Acetyl-5,5-dimethyl-2,3,4,5-tetrahydro-1H-benzo[b]azepin-8-ylamino)-5-chloro-pyrimidin-4-ylamino]-3-fluoro-N-prop-2-ynyl-benzamide] are below 100 nM and 100 to 1000 nM.
The corresponding values for `CNC(=O)c1cccc(F)c1Nc1nc(Nc2ccc3c(c2)N(C(=O)CN2CCCC2)CCCC3(C)C)ncc1Cl` [Example 1603, 2-{5-Chloro-2-[5,5-dimethyl-1-(2-pyrrolidin-1-yl-acetyl)-2,3,4,5-tetrahydro-1H-benzo[b]azepin-8-ylamino]-pyrimidin-4-ylamino}-3-fluoro-N-methyl-benzamide] are 100 to 1000 nM and 100 to 1000 nM.
Regarding `C#CCNC(=O)c1cccc(F)c1Nc1nc(Nc2ccc3c(c2)N(C(=O)CN2CCCC2)CCCC3(C)C)ncc1Cl` [Example 1604, 2-{5-Chloro-2-[5,5-dimethyl-1-(2-pyrrolidin-1-yl-acetyl)-2,3,4,5-tetrahydro-1H-benzo[b]azepin-8-ylamino]-pyrimidin-4-ylamino}-3-fluoro-N-prop-2-ynyl-benzamide], the IC50 in experiment [1] and in experiment [2] was 100 to 1000 nM each time.
With `CNC(=O)c1cccc(F)c1Nc1nc(Nc2ccc3c(c2)N(CCN2CCCC2)CCCC3(C)C)ncc1Cl` [Example 1605, 2-{5-Chloro-2-[5,5-dimethyl-1-(2-pyrrolidin-1-yl-ethyl)-2,3,4,5-tetrahydro-1H-benzo[b]azepin-8-ylamino]-pyrimidin-4-ylamino}-3-fluoro-N-methyl-benzamide], the results for the IC50 in experiment [1] and in experiment [2] were 100 to 1000 nM and below 100 nM, respectively.
As for `CC1(C)CCCN(CCN2CCCC2)c2cc(Nc3ncc(Cl)c(N[C@H]4[C@@H](C(N)=O)[C@@H]5C=C[C@H]4C5)n3)ccc21` [Example 1606, (1S,2S,3R,4R)-3-{5-Chloro-2-[5,5-dimethyl-1-(2-pyrrolidin-1-yl-ethyl)-2,3,4,5-tetrahydro-1H-benzo[b]azepin-8-ylamino]-pyrimidin-4-ylamino}-bicyclo[2.2.1]hept-5-ene-2-carboxylic acid amide], the IC50 in experiment [1] was 1000 to 10000 nM; in experiment [2], below 100 nM.
The corresponding values for `CC1(C)CCCN(C(=O)CN2CCCC2)c2cc(Nc3ncc(Cl)c(N[C@H]4[C@@H](C(N)=O)[C@@H]5C=C[C@H]4C5)n3)ccc21` [Example 1607, (1S,2S,3R,4R)-3-{5-Chloro-2-[5,5-dimethyl-1-(2-pyrrolidin-1-yl-acetyl)-2,3,4,5-tetrahydro-1H-benzo[b]azepin-8-ylamino]-pyrimidin-4-ylamino}-bicyclo[2.2.1]hept-5-ene-2-carboxylic acid amide] are 100 to 1000 nM and below 100 nM.
With `CNC(=O)c1cc(F)cc(F)c1Nc1nc(Nc2ccc3c(c2)N(C(C)=O)CCCC3(C)C)ncc1Cl` [Example 1608, 2-[2-(1-Acetyl-5,5-dimethyl-2,3,4,5-tetrahydro-1H-benzo[b]azepin-8-ylamino)-5-chloro-pyrimidin-4-ylamino]-3,5-difluoro-N-methyl-benzamide], the values for the IC50 in experiment [1] and in experiment [2] were below 100 nM and 100 to 1000 nM, respectively.
On to `C#CCNC(=O)c1cccc(F)c1Nc1nc(Nc2ccc3c(c2)N(CCN2CCCC2)CCCC3(C)C)ncc1Cl` [Example 1609, 2-{5-Chloro-2-[5,5-dimethyl-1-(2-pyrrolidin-1-yl-ethyl)-2,3,4,5-tetrahydro-1H-benzo[b]azepin-8-ylamino]-pyrimidin-4-ylamino}-3-fluoro-N-prop-2-ynyl-benzamide], for which the IC50 in experiment [1] was 100 to 1000 nM; in experiment [2] it was below 100 nM.
For `COc1cc(N2CCOCC2)ccc1Nc1nc(Nc2ccc3c(c2)N(CCN2CCCC2)CCCC3(C)C)ncc1Cl` [Example 1610, 5-Chloro-N*2*-[5,5-dimethyl-1-(2-pyrrolidin-1-yl-ethyl)-2,3,4,5-tetrahydro-1H-benzo[b]azepin-8-yl]-N*4*-(2-methoxy-4-morpholin-4-yl-phenyl)-pyrimidine-2,4-diamine], the IC50 was 1000 to 10000 nM in experiment [1] and below 100 nM in experiment [2].
The like results for `CNC(=O)c1cccc(F)c1Nc1nc(Nc2ccc3c(c2)NCCCC3(C)C)ncc1Cl` [Example 1611, 2-[5-Chloro-2-(5,5-dimethyl-2,3,4,5-tetrahydro-1H-benzo[b]azepin-8-ylamino)-pyrimidin-4-ylamino]-3-fluoro-N-methyl-benzamide] were, in that order, below 100 nM and 100 to 1000 nM.
Consider `C#CCNC(=O)c1cccc(F)c1Nc1nc(Nc2ccc3c(c2)NCCCC3(C)C)ncc1Cl` [Example 1612, 2-[5-Chloro-2-(5,5-dimethyl-2,3,4,5-tetrahydro-1H-benzo[b]azepin-8-ylamino)-pyrimidin-4-ylamino]-3-fluoro-N-prop-2-ynyl-benzamide], for which the IC50 in experiment [1] and in experiment [2] was 100 to 1000 nM each time.
In the case of `CC1(C)CCCNc2cc(Nc3ncc(Cl)c(N[C@H]4[C@@H](C(N)=O)[C@@H]5C=C[C@H]4C5)n3)ccc21` [Example 1613, (1S,2S,3R,4R)-3-[5-Chloro-2-(5,5-dimethyl-2,3,4,5-tetrahydro-1H-benzo[b]azepin-8-ylamino)-pyrimidin-4-ylamino]-bicyclo[2.2.1]hept-5-ene-2-carboxylic acid amide], the results for the IC50 in experiment [1] and in experiment [2] were 100 to 1000 nM and below 100 nM, respectively.
On to `COc1cc(N2CCOCC2)ccc1Nc1nc(Nc2ccc3c(c2)NCCCC3(C)C)ncc1Cl` [Example 1614, 5-Chloro-N*2*-(5,5-dimethyl-2,3,4,5-tetrahydro-1H-benzo[b]azepin-8-yl)-N*4*-(2-methoxy-4-morpholin-4-yl-phenyl)-pyrimidine-2,4-diamine], for which the IC50 in experiment [1] is above 10000 nM; in experiment [2], 100 to 1000 nM.
As to `CCN1C(=O)CCC(C)(C)c2ccc(Nc3ncc(Cl)c(Nc4c(F)cc(F)cc4C(=O)NC)n3)cc21` [Example 1615, 2-[5-Chloro-2-(1-ethyl-5,5-dimethyl-2-oxo-2,3,4,5-tetrahydro-1H-benzo[b]azepin-8-ylamino)-pyrimidin-4-ylamino]-3,5-difluoro-N-methyl-benzamide], the IC50 in experiment [1] and in experiment [2] was below 100 nM throughout.
Consider `CNC(=O)c1cccc(F)c1Nc1nc(Nc2ccc3c(c2)N(C(=O)CN2C(=O)c4ccccc4C2=O)CCCC3(C)C)ncc1Cl` [Example 1616, 2-(5-Chloro-2-{1-[2-(1,3-dioxo-1,3-dihydro-isoindol-2-yl)-acetyl]-5,5-dimethyl-2,3,4,5-tetrahydro-1H-benzo[b]azepin-8-ylamino}-pyrimidin-4-ylamino)-3-fluoro-N-methyl-benzamide], for which the IC50 in experiment [1] and in experiment [2] was 100 to 1000 nM throughout.
For `CNC(=O)c1cccc(F)c1Nc1nc(Nc2ccc3c(c2)N(C(=O)CN)CCCC3(C)C)ncc1Cl` [Example 1617, 2-{2-[1-(2-Amino-acetyl)-5,5-dimethyl-2,3,4,5-tetrahydro-1H-benzo[b]azepin-8-ylamino]-5-chloro-pyrimidin-4-ylamino}-3-fluoro-N-methyl-benzamide], the IC50 was below 100 nM in experiment [1] and 100 to 1000 nM in experiment [2].
`C#CCNC(=O)c1cccc(F)c1Nc1nc(Nc2ccc3c(c2)N(C(=O)CN2C(=O)c4ccccc4C2=O)CCCC3(C)C)ncc1Cl` [Example 1618, 2-(5-Chloro-2-{1-[2-(1,3-dioxo-1,3-dihydro-isoindol-2-yl)-acetyl]-5,5-dimethyl-2,3,4,5-tetrahydro-1H-benzo[b]azepin-8-ylamino}-pyrimidin-4-ylamino)-3-fluoro-N-prop-2-ynyl-benzamide]: the IC50 in experiment [1] was below 100 nM; in experiment [2], above 10000 nM.
The like results for `C#CCNC(=O)c1cccc(F)c1Nc1nc(Nc2ccc3c(c2)N(C(=O)CN)CCCC3(C)C)ncc1Cl` [Example 1619, 2-{2-[1-(2-Amino-acetyl)-5,5-dimethyl-2,3,4,5-tetrahydro-1H-benzo[b]azepin-8-ylamino]-5-chloro-pyrimidin-4-ylamino}-3-fluoro-N-prop-2-ynyl-benzamide] were, in that order, below 100 nM and 100 to 1000 nM.
The corresponding values for `CNC(=O)c1cccc(F)c1Nc1nc(Nc2ccc3c(c2)N(C(=O)N2CCCC2)CCCC3(C)C)ncc1Cl` [Example 1620, 2-{5-Chloro-2-[5,5-dimethyl-1-(pyrrolidine-1-carbonyl)-2,3,4,5-tetrahydro-1H-benzo[b]azepin-8-ylamino]-pyrimidin-4-ylamino}-3-fluoro-N-methyl-benzamide] are 100 to 1000 nM and 100 to 1000 nM.
Turning to `CC1(C)CCC(=O)Nc2cc(Nc3ncc(Cl)c(Nc4ccccc4S(=O)(=O)N4CCC(O)C4)n3)ccc21` (centres unmarked) [Example 1621, 8-{5-Chloro-4-[2-(3-hydroxy-pyrrolidine-1-sulfonyl)-phenylamino]-pyrimidin-2-ylamino}-5,5-dimethyl-1,3,4,5-tetrahydro-benzo[b]azepin-2-one], the IC50 in experiment [1] and in experiment [2] was below 100 nM each time.
